Laboratory results as given in ChEMBL document CHEMBL1201862, “PubChem BioAssay data set” (2004).
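96-well plates; 48 h exposure; 5 concentrations. Endpoints by linear interpolation between flanking doses. Not reached: highest tested concentration assigned. Here, GI50 denotes the concentration required for 50% inhibition of growth.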 Activity calls are given as the source filed them. No stated cut-off is given here; in the data, active = GI50 up to about 1.1 µM and inactive = higher.

Experiments:
Assay in all cases: NCI-60 cell line screen, 48 h
SK-MEL-5 = test system: SK-MEL-5
786-0 = test system: 786-0
DU-145 = test system: DU-145
BT-549 = test system: BT-549
A549 = test system: A549
U-251 = test system: U-251
HCT-15 = test system: HCT-15
TK-10 = test system: TK-10
NCI-H23 = test system: NCI-H23
MDA-MB-231 = test system: MDA-MB-231
UO-31 = test system: UO-31
RXF 393 = test system: RXF 393
A498 = test system: A498
ACHN = test system: ACHN
OVCAR-8 = test system: OVCAR-8
PC-3 = test system: PC-3
CAKI-1 = test system: CAKI-1
SF-539 = test system: SF-539
SR = test system: SR
HCC 2998 = test system: HCC 2998

Measured: GI50

CC1(C(=O)O)CCCC1C(=O)O (stereo not drawn)
> 100 µM: HCT-15
inactive: SK-MEL-5 > 100 µM | 786-0 > 100 µM | DU-145 > 100 µM | BT-549 > 100 µM | A549 > 100 µM | U-251 > 100 µM | TK-10 > 100 µM | NCI-H23 > 100 µM | MDA-MB-231 > 100 µM | UO-31 > 100 µM | RXF 393 > 100 µM | A498 > 100 µM | ACHN > 100 µM | OVCAR-8 > 100 µM | PC-3 > 100 µM | CAKI-1 > 100 µM

CN1CCCCCC(=N\O)/C(=N/O)CCCCC1
> 100 µM: HCT-15
inactive: SK-MEL-5 > 100 µM | 786-0 > 100 µM | SF-539 > 100 µM | DU-145 > 100 µM | BT-549 80.7 µM | A549 > 100 µM | U-251 > 100 µM | TK-10 > 100 µM | SR > 100 µM | NCI-H23 > 100 µM | MDA-MB-231 > 100 µM | UO-31 > 100 µM | RXF 393 > 100 µM | A498 > 100 µM | ACHN > 100 µM | OVCAR-8 > 100 µM | PC-3 > 100 µM | CAKI-1 > 100 µM

COc1ccc(CC(O)CN2CCOCC2)cc1 (stereo not drawn)
> 100 µM: HCT-15
inactive: SK-MEL-5 > 100 µM | 786-0 > 100 µM | DU-145 > 100 µM | BT-549 > 100 µM | A549 > 100 µM | U-251 > 100 µM | TK-10 > 100 µM | SR > 100 µM | NCI-H23 > 100 µM | MDA-MB-231 > 100 µM | UO-31 > 100 µM | RXF 393 > 100 µM | A498 > 100 µM | ACHN > 100 µM | OVCAR-8 > 100 µM | PC-3 > 100 µM | CAKI-1 > 100 µM

C=CCNC(NCC=C)=C(C(Cl)=C(Cl)Cl)[N+](=O)[O-]
16.8 µM: HCT-15
inactive: 786-0 34.9 µM | SF-539 21.3 µM | DU-145 78.3 µM | BT-549 26 µM | A549 > 100 µM | U-251 > 100 µM | NCI-H23 34.1 µM | MDA-MB-231 > 100 µM | UO-31 37.5 µM | A498 > 100 µM | ACHN 31.8 µM | OVCAR-8 16.6 µM | PC-3 51.2 µM | CAKI-1 30.5 µM | HCC 2998 > 100 µM

CC(C)(C)C(=O)CP(=O)(O)O
> 100 µM: HCT-15
inactive: SK-MEL-5 > 100 µM | 786-0 > 100 µM | SF-539 > 100 µM | DU-145 > 100 µM | BT-549 > 100 µM | A549 > 100 µM | U-251 > 100 µM | TK-10 > 100 µM | SR > 100 µM | NCI-H23 > 100 µM | MDA-MB-231 > 100 µM | RXF 393 > 100 µM | A498 > 100 µM | ACHN > 100 µM | OVCAR-8 > 100 µM | PC-3 > 100 µM | CAKI-1 > 100 µM

O=C(O)CCC(NC(=O)/C(=C/c1ccccc1)NC(=O)c1ccccc1)C(=O)O (stereo not drawn)
> 100 µM: HCT-15
inactive: SK-MEL-5 > 100 µM | 786-0 > 100 µM | SF-539 > 100 µM | DU-145 > 100 µM | BT-549 > 100 µM | A549 > 100 µM | TK-10 > 100 µM | NCI-H23 > 100 µM | MDA-MB-231 > 100 µM | UO-31 > 100 µM | RXF 393 > 100 µM | A498 > 100 µM | ACHN > 100 µM | OVCAR-8 > 100 µM | PC-3 > 100 µM | CAKI-1 > 100 µM | HCC 2998 > 100 µM

COc1cc2c(cc1OCCCN1CCOCC1)N=C[C@@H]1CCCN1C2=O
inactive: SK-MEL-5 4.07 µM | 786-0 4.16 µM | SF-539 4.7 µM | DU-145 21.7 µM | BT-549 6.53 µM | A549 35.7 µM | U-251 4.41 µM | TK-10 19.8 µM | SR 3.57 µM | MDA-MB-231 11 µM | UO-31 11.5 µM | RXF 393 2.75 µM | A498 10.1 µM | ACHN 14 µM | OVCAR-8 24.7 µM | PC-3 18.6 µM | CAKI-1 5.82 µM
24.9 µM: HCT-15

O=c1c(C(c2ccc([N+](=O)[O-])cc2)c2c(O)oc3ccccc3c2=O)c(O)oc2ccccc12
inactive: SK-MEL-5 > 100 µM | 786-0 > 100 µM | DU-145 > 100 µM | BT-549 > 100 µM | U-251 > 100 µM | TK-10 > 100 µM | NCI-H23 > 100 µM | MDA-MB-231 > 100 µM | UO-31 > 100 µM | A498 > 100 µM | OVCAR-8 > 100 µM | PC-3 > 100 µM | CAKI-1 > 100 µM
> 100 µM: HCT-15
